Each structure is given as a SMILES string. Structures can show the parent of a compound that is named as a salt.

The results in this text go back to patent publication US6221865A, “Inhibitors of protein isoprenyl transferases” (priority 1998, dated 2001).

T1 sequence (Q02293 whole entry, one chain of several): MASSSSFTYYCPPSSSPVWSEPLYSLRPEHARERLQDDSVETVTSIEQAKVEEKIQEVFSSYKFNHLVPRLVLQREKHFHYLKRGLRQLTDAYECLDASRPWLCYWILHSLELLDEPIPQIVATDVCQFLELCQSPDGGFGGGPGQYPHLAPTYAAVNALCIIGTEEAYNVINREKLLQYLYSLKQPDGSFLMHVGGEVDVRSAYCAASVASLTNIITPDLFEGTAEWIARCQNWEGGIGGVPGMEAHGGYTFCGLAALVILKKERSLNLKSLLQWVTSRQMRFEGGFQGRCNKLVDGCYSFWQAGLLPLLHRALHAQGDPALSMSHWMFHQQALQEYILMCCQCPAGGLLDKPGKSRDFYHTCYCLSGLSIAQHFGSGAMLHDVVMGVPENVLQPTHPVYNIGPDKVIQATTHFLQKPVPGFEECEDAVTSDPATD

The first assay addresses T1, protein farnesyltransferase (Rattus norvegicus, UniProt Q02293+Q04631).
T1 construct: The enzyme is purified according to Reiss, Y., et al., Cell, 62: 81-88 (1990), utilizing steps one through three; from tissue; host or cells: rat brain
Kind of assay: Inhibition of farnesyltransferase (scintillation proximity assay, rat brain enzyme, biotin-K Ras B fragment substrate). The class given is biochemical. As to conditions: 1 × 10^-5 M (Table 1). The method, boiled down: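 Enzyme from rat brain, partly purified (steps one to three), assayed by SPA kit using 0.1 mM final biotin-K Ras B peptide as prenyl acceptor rather than biotin-lamin. Activity given as percent inhibition.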
With `CSCC[C@H](NC(=O)c1ccc(NC(=O)c2cccc(N(C)C)c2)cc1-c1ccccc1)C(=O)O` [Example 752], the “% inhibition of farnesyltransferase at 1 × 10^-5 M” value (shortened to “% inhibition … at 1 × 10^-5 M”) amounted to 58%. As to `CSCC[C@H](NC(=O)c1ccc(NC(=O)Cc2ccccc2[N+](=O)[O-])cc1-c1ccccc1)C(=O)O` [Example 757], the “% inhibition … at 1 × 10^-5 M” value was 58%. Regarding `CSCC[C@H](NC(=O)c1ccc(CNc2cc(C)ns2)cc1-c1ccccc1)C(=O)O` [Example 373], the “% inhibition … at 1 × 10^-5 M” value was 76%. Still for that read-out and setting: with `CSCC[C@H](NC(=O)c1ccc(CNc2nnc(C)s2)cc1-c1ccccc1)C(=O)O` [Example 371] the figure was 66%.

The same assay, now with this note: 1 × 10^-6 M (Table 2).
Turning to `CSCC[C@H](NC(=O)c1ccc(CNCC(O)CO)cc1-c1ccccc1)C(=O)O` (some centres unmarked) [Example 632], the “% inhibition of farnesyltransferase at 1 × 10^-6 M” value (“% inhibition … at 1 × 10^-6 M” for short) is reported as 43%. Same read-out and setting: the value for `CSCC[C@H](NC(=O)c1ccc(CNCCS)cc1-c1ccccc1)C(=O)O` [Example 626] was 61%. Take `CSCC[C@H](NC(=O)c1ccc(CN[C@H](C)CC2CCCCC2)cc1-c1ccccc1C)C(=O)O` [Example 613]: the “% inhibition … at 1 × 10^-6 M” value is 97%. On the same count and under the same terms, with `CSCC[C@H](NC(=O)c1ccc(NC(=O)C2=C(C(F)(F)F)C=CNC2)cc1-c1ccccc1)C(=O)O` [Example 283] the figure was 98%; with `CSCC[C@H](NC(=O)c1ccc(CNc2ccccc2F)cc1-c1ccccc1)C(=O)O` [Example 642], 48%; with `CSCC[C@H](NC(=O)c1ccc(NC(=O)[C@@H](N)COCc2ccccc2)cc1-c1ccccc1)C(=O)O` [Example 503], 57%. As to `CSCC[C@H](NC(=O)c1ccc(NC(=O)[C@@H]2CSCN2)cc1-c1ccccc1)C(=O)O` [Example 165], the “% inhibition … at 1 × 10^-6 M” value was determined as 74%. On the same count and under the same terms, with `CSCC[C@H](NC(=O)c1ccc(NCC(CO)(Cc2ccccc2)Cc2ccccc2)cc1-c1ccccc1C)C(=O)O` [Example 475] the figure was 21%; with `COc1ccccc1CCC(=O)Nc1ccc(C(=O)N[C@@H](CCSC)C(=O)O)c(-c2ccccc2C)c1` [Example 544], 35%.

`CSCC[C@H](NC(=O)c1ccc(CN[C@H](CO)Cc2ccccc2)cc1-c1ccccc1C)C(=O)O` [Example 727]: the “% inhibition … at 1 × 10^-6 M” value was 95%. Same read-out and setting: with `CSCC[C@H](NC(=O)c1ccc(COCc2ccc(CN(C)C)o2)cc1-c1ccccc1C)C(=O)O` [Example 435] the figure was 96%.

Staying with this assay, now noted: 1 × 10^-7 M (Table 3).
`CSCC[C@H](NC(=O)c1ccc(COC2CCC(NC(=O)OC(C)(C)C)CC2)cc1-c1ccccc1C)C(=O)[O-].[Li+]` (some centres unmarked) [Example 817]: the “% inhibition of farnesyltransferase at 1 × 10^-7 M” value (from here on “% inhibition … at 1 × 10^-7 M”) was 60%. The same measure, in the same setting: with `CSCC[C@H](NC(=O)c1ccc(CNC(CC2CCCCC2)CC2CCCCC2)cc1-c1ccccc1C)C(=O)O` [Example 524] the figure was 99%; with `CCCCC(OCc1ccc(C(=O)N[C@@H](CCSC)C(=O)[O-])c(-c2ccccc2C)c1)c1ccco1.[Li+]` (some centres unmarked) [Example 825], 79%; with `CSCC[C@H](NC(=O)c1ccc(COCCCCC2CCCCC2)cc1-c1ccccc1C)C(=O)O` [Example 600], 93%. Still for that read-out and setting: the value for `CSCC[C@H](NC(=O)c1ccc(COCC2CCCCC2)cc1-c1ccccc1C)C(=O)[O-].[Li+]` [Example 585] was 96%; that for `CSCC[C@H](NC(=O)c1ccc(CN(c2ccccc2)S(=O)(=O)c2ccc(C)cc2)cc1-c1ccccc1C)C(=O)O` [Example 770] was 91%; that for `CSCC[C@H](NC(=O)c1ccc(COCc2ccc(-c3ccccc3F)o2)cc1-c1ccccc1C)C(=O)[O-].[Li+]` [Example 437] was 89%. Take `CSCC[C@H](NC(=O)c1ccc(COCc2ccc(-c3cccc([N+](=O)[O-])c3)o2)cc1-c1ccccc1C)C(=O)[O-].[Li+]` [Example 440]: the “% inhibition … at 1 × 10^-7 M” value is 92%. On the same count and under the same terms, with `COc1ccccc1COCc1ccc(C(=O)N[C@@H](CCSC)C(=O)[O-])c(-c2ccccc2C)c1.[Li+]` [Example 931] the figure was 98%. With `CSCC[C@H](NC(=O)c1ccc(CSCCc2ccccc2)cc1-c1ccccc1C)C(=O)[O-].[Li+]` [Example 562], the “% inhibition … at 1 × 10^-7 M” value was 95%. On the same count and under the same terms, the value for `CSCC[C@H](NC(=O)c1ccc(COc2ccc3ccccc3c2)cc1-c1ccccc1C)C(=O)O` [Example 573] was 72%.

On to `CSCC[C@H](NC(=O)c1ccc(COCc2ccc(-c3ccc(Cl)cc3)o2)cc1-c1ccccc1C)C(=O)O` [Example 443], for which the “% inhibition … at 1 × 10^-7 M” value is 97%. Still for that read-out and setting: with `CSCC[C@H](NC(=O)c1ccc(COCc2cccc(C)c2)cc1-c1ccccc1C)C(=O)[O-].[Li+]` [Example 578] the figure was 90%.

The same assay, now with this note: 1 × 10^-8 M (Table 4).
Turning to `CSCC[C@H](NC(=O)c1ccc(CN[C@H](CSC2CCCCC2)CC2CCCCC2)cc1-c1ccccc1C)C(=O)O` [Example 766], the “% inhibition of farnesyltransferase at 1 × 10^-8 M” value (from here on “% inhibition … at 1 × 10^-8 M”) is on record as 95%.

For `CSCC[C@H](NC(=O)c1ccc(CN(Cc2cncs2)S(=O)(=O)c2ccc(C)cc2)cc1-c1ccccc1C)C(=O)O` [Example 877], the “% inhibition … at 1 × 10^-8 M” value came to 68%.

For `CSCC[C@H](NC(=O)c1ccc(CN(Cc2ccc3c(c2)OCO3)c2cncnc2)cc1-c1ccccc1C)C(=O)O` [Example 837], the “% inhibition … at 1 × 10^-8 M” value is on record as 91%.

As for `CSCC[C@H](NC(=O)c1ccc(CN(Cc2ccccc2)c2cccc(SC)c2)cc1-c1ccccc1C)C(=O)[O-].[Li+]` [Example 851], the “% inhibition … at 1 × 10^-8 M” value is 82%. Still for that read-out and setting: with `CSCC[C@H](NC(=O)c1ccc(CN(CCC2CCCCC2)C(=O)c2ccccc2)cc1-c1ccccc1C)C(=O)O` [Example 762] the figure was 84%; with `CSCC[C@H](NC(=O)c1ccc(CO[C@H](CSC(C)(C)C)CC2CCCCC2)cc1-c1ccccc1C)C(=O)O` [Example 883], 91%. The same measure, in the same setting: the value for `CSCC[C@H](NC(=O)c1ccc(CO[C@H](CSc2ccccc2)CC2CCCCC2)cc1-c1ccccc1C)C(=O)O` [Example 884] was 94%; that for `C=C[C@H](CC1CCCCC1)NCc1ccc(C(=O)N[C@@H](CCSC)C(=O)O)c(-c2ccccc2C)c1` [Example 619] was 95%.

Staying with this assay, now noted: read-out: % inhibition at 0.01 μM (**); Table 6, ** = 0.01 μM (footnote); title prints 0.01 mM.
As for `CSCC[C@H](NC(=O)c1ccc(CN2CCOC[C@@H]2COCC2CCCCC2)cc1-c1ccccc1C)C(=O)O` [Example 1109, N-[4-(3(S)-cyclohexylmethoxymethylmorpholin-4-ylmethyl)-2-(2-methylphenyl)benzoyl]methionine], the inhibition at 0.01 µM came to 74%.

Take `CSCC[C@H](NC(=O)c1ccc(CP(=O)(CCC2CCCCC2)CCC2CCCCC2)cc1-c1ccccc1C)C(=O)O` [Example 1219, N-[4-(Di(2-cylohexylethyl)(oxophosphinyl)methyl)-2-(2-methylphenyl)benzoyl]methionine]: the inhibition at 0.01 µM is 85%.

The same assay, now with this note: read-out: % inhibition at 0.1 μM (*); Table 6, * = 0.1 μM (footnote); title prints 0.1 mM.
As for `CSCC[C@H](NC(=O)c1ccc(CP(C)(=O)CC2CCCCC2)cc1-c1ccccc1C)C(=O)O` (some centres unmarked) [Example 1212, N-[4-((Cylohexylmethyl)methyl(oxophosphinyl)methyl)-2-(2-methylphenyl)benzoyl]methionine], the inhibition at 0.1 µM came out at 86%.

Still in this assay, the particulars now being: read-out: % inhibition of farnesyltransferase at 1 × 10^-6 M; 1 × 10^-6 M (Table 2).
On to `CSCC[C@H](NC(=O)c1ccc(C=CCc2ccccc2)cc1-c1ccccc1C)C(=O)O` (mixture of isomers) [Example 469, N-[4-(3-phenylprop-1-enyl)-2-(2-methylphenyl)benzoyl]methionine (1:1 mixture of olefin isomers)], for which the inhibition at 1 µM was 92%.

As to `CCCCN(C)N(CCC1CCCCC1)Cc1ccc(C(=O)N[C@@H](CCS(C)(=O)=O)C(=O)O)c(-c2ccccc2C)c1` [Example 300], the inhibition at 1 µM worked out at 22%.

For the molecule `Cc1ccccc1-c1cc(CCc2ccccc2Oc2ccccc2)ccc1C(=O)N[C@@H](CC[S+](C)[O-])C(=O)O` (some centres unmarked) [Example 456, N-[4-(2-(2-phenoxyphenyl)ethyl)-2-(2-methylphenyl)benzoyl]-2-amino-4-methylsulfinylbutanoic acid lithium salt], the inhibition at 1 µM came out at 81%. Still for that read-out and setting: with `Cc1ccccc1-c1cc(CN(C(C)C)C2(Cc3ccccc3)CC2)ccc1C(=O)N[C@@H](CCS(C)(=O)=O)C(=O)O` [Example 327] the figure was 97%.

Staying with this assay, now noted: read-out: % inhibition of farnesyltransferase at 1 × 10^-7 M; 1 × 10^-7 M (Table 3).
As for `CSCC[C@H](NC(=O)c1ccc(CCc2ccc(Oc3ccccc3)nn2)cc1-c1ccccc1C)C(=O)O` [Example 811, N-[4-(2-(3-phenoxylyridazin-6-yl)ethyl)-2-(2-methylphenyl)benzoyl]methionine lithium salt], the inhibition at 0.1 µM was 85%.

Regarding `CSCC[C@H](NC(=O)c1ccc(CCc2ccc(Oc3ccccc3Cl)cc2)cc1-c1ccccc1C)C(=O)O` [Example 855, N-[4-(2-(4-(2-chlorophenoxy)phenyl)ethyl)-2-(2-methylphenyl)benzoyl]methionine], the inhibition at 0.1 µM was found to be 92%. On the same count and under the same terms, with `CCCC(CCC)NOCc1ccc(C(=O)N[C@@H](CCSC)C(=O)O)c(-c2ccccc2C)c1` [Example 929, N-[4-(N-Hept-4-ylaminooxymethyl)-2-(2-methylphenyl)benzoyl]methionine] the figure was 81%.

Still in this assay, the particulars now being: read-out: % inhibition of farnesyltransferase at 1 × 10^-8 M; 1 × 10^-8 M (Table 4).
For the molecule `CSCC[C@H](NC(=O)c1ccc(CN2CCC[C@H]2COc2ccccc2)cc1-c1ccccc1C)C(=O)O` [Example 991, N-[4-(2-phenoxymethylpyrrolidin-1-ylmethyl)-2-(2-methylphenyl)benzoyl]methionine], the inhibition at 0.01 µM was determined as 69%.

By inhibition is commonly meant the percentage by which the read-out fell short of the control.
